Values after ≈ are worked out from the molar mass of the structure shown. Active and inactive are the calls of the source. The calls are words filed in the database; no cut-off is given here.

Data set [1] deals with Candida albicans. The data set can be described thus: Antifungal activity against Candida albicans infected in mouse assessed as increase in animal's body weight at 20 mg/kg, ip administered on days 2,4,6,8,10,12 and measured on day 14. In kind it is functional, organism-based. To be noted: time 13.0 day.
Data set [2] relates to Mus musculus. Kind of data set: Anti-inflammatory activity in mouse infected with Candida albicans assessed as reduction in NF-kappaB p65 expression in spleen at 20 mg/kg, ip administered on days 2,4,6,8,10,12 and measured on day 14 by immunohistochemical analysis. Type of data set: functional, organism-based. To be noted: time 13.0 day.
Data set [3] has as its target T1, Lanosterol 14-alpha demethylase (Candida albicans (strain SC5314 / ATCC MYA-2876) (Yeast), UniProt P10613). The data set can be described thus: Inhibition of CYP51 in Candida albicans ATCC SC5314 assessed as unknown sterol content at 4 ug/ml measured after 48 hrs by GC-MS analysis. Also noted: scale not given: the % may be the effect or the level left. To be noted: at 4 µg/mL.

In data set [4] the test system is Pichia kudriavzevii. Kind of data set: Antifungal activity against Candida krusei ATCC 6258 assessed as inhibition of fungal growth measured after 72 hrs by CLSI based liquid medium dilution method. Type of data set: functional.
Data set [5] relates to Candida albicans. The data set can be described thus: Antifungal activity against fluconazole-resistant Candida albicans 632 assessed as inhibition of fungal growth measured after 72 hrs by CLSI based liquid medium dilution method. In kind it is functional.
Data set [6] relates to Candida albicans. The data set can be described thus: Antifungal activity against Candida albicans infected in mouse assessed as reduction in necrotic cell fragments in intercellular spaces of the infection region at 20 mg/kg, ip administered on days 2,4,6,8,10,12 and measured on day 14 by hematoxyin-eosin staining based analysis. To be noted: time 13.0 day. Type of data set: functional, organism-based.

For data set [7], the system named is Mus musculus. Kind of data set: Anti-inflammatory activity in mouse infected with Candida albicans assessed as reduction in IL-6R expression in infection tissues at 20 mg/kg, ip administered on days 2,4,6,8,10,12 and measured on day 14 by western blot analysis. In kind it is functional, organism-based. To be noted: time 13.0 day.
Data set [8] addresses T1, Lanosterol 14-alpha demethylase. Kind of data set: Inhibition of CYP51 in Candida albicans ATCC SC5314 assessed as lanosterol content at 4 ug/ml measured after 48 hrs by GC-MS analysis. Also noted: scale not given: the % may be the effect or the level left. To be noted: at 4 µg/mL.
Data set [9] relates to Mus musculus. Kind of data set: Anti-inflammatory activity in mouse infected with Candida albicans assessed as reduction in PD-L1 expression in infection tissue at 20 mg/kg, ip administered on days 2,4,6,8,10,12 and measured on day 14 by western blot analysis. Type of data set: functional, organism-based. To be noted: time 13.0 day.
Data set [10] concerns the target T1, Lanosterol 14-alpha demethylase. The data set can be described thus: Inhibition of CYP51 in Candida albicans ATCC SC5314 assessed as eburicol content at 4 ug/ml measured after 48 hrs by GC-MS analysis (reference value: 1.84%). Also noted: scale not given: the % may be the effect or the level left. To be noted: at 4 µg/mL.
For data set [11], the system named is Mus musculus. The data set can be described thus: Anti-inflammatory activity in mouse infected with Candida albicans assessed as reduction in NF-kappaB p65 expression in infection tissues at 20 mg/kg, ip administered on days 2,4,6,8,10,12 and measured on day 14 by western blot analysis. Type of data set: functional, organism-based. To be noted: time 13.0 day. Background: In western blotting, separated proteins are transferred to a membrane and probed.

For data set [12], the system named is Candida albicans. Kind of data set: Antifungal activity against Candida albicans infected in mouse assessed as reduction in fungal proliferation in the infection region at 20 mg/kg, ip administered on days 2,4,6,8,10,12 and measured on day 14 by GMS staining based analysis. In kind it is functional, organism-based. To be noted: time 13.0 day.
The subject of data set [13] is Candida albicans. Kind of data set: Antifungal activity against Candida albicans infected in mouse assessed as reduction in fungal endogenous infection symptoms at 20 mg/kg, ip administered on days 2,4,6,8,10,12 and measured on day 14 by hematoxylin-eosin staining based analysis. To be noted: time 13.0 day. Type of data set: functional, organism-based.
The nature of data set [14]: Increase in intracellular ROS level in Candida albicans assessed as fold increase in fluorescence intensity measured after 12 hrs by fluorescence microscopic analysis relative to control. In kind it is functional.
The test system of data set [15] is Mus musculus. The data set can be described thus: Immunomodulatory activity in mouse infected with Candida albicans assessed as increase in expression intensity of CD3+ T cells in spleen at 20 mg/kg, ip administered on days 2,4,6,8,10,12 and measured on day 14 by immunohistochemical staining analysis relative to fluconazole. To be noted: time 13 day. Type of data set: functional, T-cell.

Data set [16] can be described thus: Toxicity in mouse infected with Candida albicans assessed as morphological changes in spleen at 20 mg/kg, ip administered on days 2,4,6,8,10,12 and measured on day 14 by hematoxyin-eosin staining based analysis. In kind it is organism-based. To be noted: in vivo, 312 h, time 13 day.
A short description of data set [17]: Toxicity in mouse infected with Candida albicans assessed as morphological changes in lungs at 20 mg/kg, ip administered on days 2,4,6,8,10,12 and measured on day 14 by hematoxyin-eosin staining based analysis. Type of data set: organism-based. To be noted: in vivo, 312 h, time 13 day.
Data set [18] relates to Candida albicans. The data set can be described thus: Antifungal activity against Candida albicans infected in mouse assessed as shrinkage of fungal infection region at 20 mg/kg, ip administered on days 2,4,6,8,10,12 and measured on day 14. Type of data set: functional, organism-based. To be noted: time 13.0 day.
Data set [19] can be described thus: Toxicity in mouse infected with Candida albicans assessed as morphological changes in kidney at 20 mg/kg, ip administered on days 2,4,6,8,10,12 and measured on day 14 by hematoxyin-eosin staining based analysis. Type of data set: organism-based. To be noted: in vivo, 312 h, time 13 day.
Data set [20] has as its system Mus musculus. The data set can be described thus: Immunomodulatory activity in mouse infected with Candida albicans assessed as increase in expression intensity of CD8+ T cells in spleen at 20 mg/kg, ip administered on days 2,4,6,8,10,12 and measured on day 14 by immunohistochemical staining analysis relative to fluconazole. In kind it is functional, T-cell. To be noted: time 13 day.

A short description of data set [21]: Increase in intracellular ROS level in Cryptococcus neoformans assessed as fold increase in fluorescence intensity measured after 12 hrs by fluorescence microscopic analysis relative to control. In kind it is functional.
Data set [22] is described as follows: Toxicity in mouse infected with Candida albicans assessed as morphological changes in liver at 20 mg/kg, ip administered on days 2,4,6,8,10,12 and measured on day 14 by hematoxyin-eosin staining based analysis. Type of data set: organism-based. To be noted: in vivo, 312 h, time 13 day.
The nature of data set [23]: Drug uptake in Candida albicans ATCC SC5314 assessed as increase in red and green fluorescence intensity measured after 10 hrs by PI/Hoechst […] staining based fluorescence microscopy. In kind it is ADME.
Data set [24] addresses T2, Prostaglandin G/H synthase 2 (Homo sapiens, UniProt P35354).
T2 sequence (P35354 whole entry): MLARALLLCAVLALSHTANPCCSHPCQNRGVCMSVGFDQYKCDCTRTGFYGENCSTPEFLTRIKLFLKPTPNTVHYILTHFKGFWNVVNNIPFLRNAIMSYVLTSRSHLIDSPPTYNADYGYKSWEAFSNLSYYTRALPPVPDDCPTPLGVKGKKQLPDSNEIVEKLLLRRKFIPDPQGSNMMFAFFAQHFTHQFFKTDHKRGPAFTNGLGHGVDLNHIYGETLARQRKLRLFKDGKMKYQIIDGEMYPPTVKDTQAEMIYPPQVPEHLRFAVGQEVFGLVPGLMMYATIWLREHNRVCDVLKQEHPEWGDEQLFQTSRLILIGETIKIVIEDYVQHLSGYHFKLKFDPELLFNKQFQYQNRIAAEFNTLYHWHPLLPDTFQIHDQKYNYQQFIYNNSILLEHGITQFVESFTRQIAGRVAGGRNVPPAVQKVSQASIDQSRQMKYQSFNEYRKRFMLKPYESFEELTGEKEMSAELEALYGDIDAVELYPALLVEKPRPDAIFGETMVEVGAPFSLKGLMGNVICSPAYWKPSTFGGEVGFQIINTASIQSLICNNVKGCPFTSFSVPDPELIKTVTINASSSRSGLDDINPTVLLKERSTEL
The data set can be described thus: Inhibition of COX2 (unknown origin) assessed as reduction in PGF2alpha content using arachidonic acid as substrate preincubated for 10 mins followed by substrate addition and measured after 2 mins by enzyme immunoassay.

T1 sequence (P10613 whole entry): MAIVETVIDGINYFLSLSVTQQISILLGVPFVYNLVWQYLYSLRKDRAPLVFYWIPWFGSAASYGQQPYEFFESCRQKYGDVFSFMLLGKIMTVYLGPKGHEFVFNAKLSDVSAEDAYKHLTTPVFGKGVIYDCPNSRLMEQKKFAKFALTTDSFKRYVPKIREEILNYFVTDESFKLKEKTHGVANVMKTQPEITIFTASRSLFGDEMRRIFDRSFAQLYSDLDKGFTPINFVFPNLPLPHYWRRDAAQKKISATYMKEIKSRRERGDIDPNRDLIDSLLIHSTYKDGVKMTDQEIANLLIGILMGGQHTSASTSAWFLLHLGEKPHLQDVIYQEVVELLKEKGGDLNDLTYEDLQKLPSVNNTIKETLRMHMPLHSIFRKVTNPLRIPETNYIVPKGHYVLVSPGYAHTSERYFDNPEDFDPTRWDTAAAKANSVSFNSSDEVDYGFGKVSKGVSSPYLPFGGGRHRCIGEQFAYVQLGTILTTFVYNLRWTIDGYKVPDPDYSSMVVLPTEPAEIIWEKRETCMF

Regarding `OC(Cn1cncn1)(Cn1cncn1)c1ccc(F)cc1F` [FLUCONAZOLE], the outcome in data set [1], in [2], in [6], in data set [7], in data set [9] and in data set [11] was Active. Besides, the outcome in data set [12] and in [13] was Active. The results for the Activity in data set [3], in data set [8] and in [10] were 4.09%, 35.17% and 40.17%, respectively. In addition, the MIC50 (commonly an inhibitory concentration at the 50% level, which refers to growth in some studies and to a panel of isolates in others) in data set [4] is 1 µg/mL (≈ 3.27 µM); in data set [5], greater than 8 µg/mL.
Consider `C[C@H](C(=O)N(C)CC(O)(Cn1ccnc1)c1ccc(Cl)cc1)c1ccc(-c2ccccc2)c(F)c1` (stereo partly specified), for which the “fold change (FC)” value stood at 4 in [14], 2.12 in data set [15], 2.12 in data set [20] and 4 in [21]. Moreover, the outcome in data set [1], in data set [2], in [18], in data set [6], in [7] and in [9] was Active. The result in data set [11], in data set [12] and in [13] was Active. Further, the Activity in [3] was 3.47%; in data set [16], “Non-Toxic”; in data set [17], “Non-Toxic”; in data set [19] it was “Non-Toxic”; in [8] it was 39.74%; in data set [10], 43.28%. Moreover, in [22], the Activity entry is on record as “Non-Toxic”. The MIC50 worked out at 0.25 µg/mL (≈ 0.508 µM) in data set [4] and 4 µg/mL (≈ 8.13 µM) in data set [5]. Moreover, in data set [23], the Drug uptake result is “Active”. Also, the half-maximal inhibitory concentration (IC50) (as a rule, the concentration that gives 50% inhibition) in data set [24] was 2.29 µM.
As for `C[C@H](C(=O)N(C)CC(O)(Cn1ccnc1)c1ccc(Cl)cc1Cl)c1cccc(C(=O)c2ccccc2)c1` (stereo partly specified), the “fold change (FC)” value worked out at 4 in data set [14], 2.12 in data set [15], 2.12 in data set [20] and 4 in [21]. The result in data set [1], in data set [2], in [18], in data set [6], in data set [7] and in [9] was Active. The outcome in [11], in data set [12] and in [13] was Active. The Activity in data set [3] was 2.61%; in data set [16], “Non-Toxic”; in data set [17], “Non-Toxic”; in [19] it was “Non-Toxic”; in data set [8], 38.57%; in data set [10] it was 50.87%. The Activity result in [22] is “Non-Toxic”. In addition, the MIC50 was determined as 0.125 µg/mL (≈ 0.233 µM) in data set [4] and 2 µg/mL (≈ 3.73 µM) in data set [5]. Also, in data set [23], the Drug uptake result is reported as “Active”. Also, the IC50 in [24] came to 1.93 µM.

The record behind these values is ChEMBL document CHEMBL5214990, “Novel Aryl Alkamidazole Derivatives as Multifunctional Antifungal Inhibitors: Design, Synthesis, and Biological Evaluation” (J Med Chem, 2022).
